Reference: ChEMBL document CHEMBL6121047, “Design, Synthesis, and Evaluation of Selective PDE4 Inhibitors for the Therapy of Pulmonary Injury” (J Med Chem, 2025)
Active and inactive are the calls of the source. The rule behind the calls is not given here.

Key:
HEK-293T = test: Cytotoxicity against human HEK293T cells assessed as reduction in cell viability incubated for 24 hrs by CCK-8 assay; assay type: toxicity, cell-based; parameters: concentration or dose not given beside the values
[1] = target: 3',5'-cyclic-AMP phosphodiesterase 4B (Homo sapiens, UniProt Q07343); test: Inhibition of recombinant full length PDE4B (unknown origin) using FAM-cAMP as substrate at 1 uM preincubated with compound for compound for 15 mins followed by substrate addition and measured after 30 mins by Envision multilabel reader analysis relative to control; details: time 45.0 min
RAW264.7 = test: Cytotoxicity against mouse RAW264.7 cells assessed as reduction in cell viability incubated for 24 hrs by CCK-8 assay; assay type: toxicity, cell-based; details: raw264.7, 24 h
HepG2 = test: Cytotoxicity against human HepG2 cells assessed as reduction in cell viability incubated for 24 hrs by CCK-8 assay; assay type: toxicity, cell-based; details: hepg2, 24 h
[2] = Inhibition of PDE3 (unknown origin); parameters: species or system Homo sapiens
Phosphodiesterase 4 = Phosphodiesterase 4 (Homo sapiens, UniProt P27815+Q08499+Q07343+Q08493); test: Inhibition of PDE4 (unknown origin); assay type: protein assay
Mus musculus [3] = test: (§1) Anti-inflammatory activity against cigarette-smoke/LPS-induced COPD male C57BL/6 mouse model assessed as reduction in TNF-alpha level in BALF at 5 mg/kg pretreated with cigarette smoke exposure for 21 weeks with subsequent LPS induction twice on the first and 15th day followed by compound administration every day via gavage for 4 weeks; assay type: functional, organism-based
Mus musculus [4] = test: as §1, with “reduction in bronchiole thickness at 5” for “reduction in TNF-alpha level in BALF at 5”, “4 weeks by H and E staining based microscopic analysis” for “4 weeks”; assay type: functional, organism-based
Mus musculus [5] = test: Anti-inflammatory activity against LPS-induced acute lung injury male BALB/c mouse model assessed as restoration of alveolar septa in lung at 4 mg/kg administered once a day via gavage for 7 days followed by LPS stimulation and measured after 24 hrs by H and E staining based microscopic analysis; assay type: functional, organism-based; details: time 192.0 hrs
Mus musculus [6] = test: Anti-inflammatory activity against LPS-induced acute lung injury male BALB/c mouse model assessed as relaxation of alveolar in lung at 4 mg/kg administered once a day via gavage for 7 days followed by LPS stimulation and measured after 24 hrs by H and E staining based microscopic analysis; assay type: functional, organism-based; details: time 192.0 hrs
Mus musculus [7] = test: Anti-inflammatory activity against LPS-induced acute lung injury male BALB/c mouse model assessed as enlarged bronchiole tubes in lung at 4 mg/kg administered once a day via gavage for 7 days followed by LPS stimulation and measured after 24 hrs by H and E staining based microscopic analysis; assay type: functional, organism-based; details: time 192.0 hrs
Mus musculus [8] = test: as §1, with “MMP9” for “TNF-alpha”; assay type: functional, organism-based
Mus musculus [9] = test: Antifibrotic activity against LPS-induced acute lung injury male BALB/c mouse model assessed as decrease in collagen deposition at 4 mg/kg administered once a day via gavage for 7 days followed by LPS stimulation and measured after 24 hrs by masson staining based microscopic analysis; assay type: functional, organism-based; details: time 192.0 hrs
Mus musculus [10] = test: Anti-inflammatory activity against cigarette-smoke/LPS-induced COPD male C57BL/6 mouse model assessed as decrease in collagen formation at 5 mg/kg pretreated with cigarette smoke exposure for 21 weeks with subsequent LPS induction twice on the first and 15th day followed by compound administration every day via gavage for 4 weeks by masson staining based microscopic analysis; assay type: functional, organism-based
Mus musculus [11] = test: as §1, with “IL-6” for “TNF-alpha”; assay type: functional, organism-based
Mus musculus [12] = test: Anti-inflammatory activity against LPS-induced acute lung injury male BALB/c mouse model assessed as restoration of alveolar cavities in lung at 4 mg/kg administered once a day via gavage for 7 days followed by LPS stimulation and measured after 24 hrs by H and E staining based microscopic analysis; assay type: functional, organism-based; details: time 192.0 hrs

3',5'-cyclic-AMP phosphodiesterase 4B, sequence (Q07343 whole entry): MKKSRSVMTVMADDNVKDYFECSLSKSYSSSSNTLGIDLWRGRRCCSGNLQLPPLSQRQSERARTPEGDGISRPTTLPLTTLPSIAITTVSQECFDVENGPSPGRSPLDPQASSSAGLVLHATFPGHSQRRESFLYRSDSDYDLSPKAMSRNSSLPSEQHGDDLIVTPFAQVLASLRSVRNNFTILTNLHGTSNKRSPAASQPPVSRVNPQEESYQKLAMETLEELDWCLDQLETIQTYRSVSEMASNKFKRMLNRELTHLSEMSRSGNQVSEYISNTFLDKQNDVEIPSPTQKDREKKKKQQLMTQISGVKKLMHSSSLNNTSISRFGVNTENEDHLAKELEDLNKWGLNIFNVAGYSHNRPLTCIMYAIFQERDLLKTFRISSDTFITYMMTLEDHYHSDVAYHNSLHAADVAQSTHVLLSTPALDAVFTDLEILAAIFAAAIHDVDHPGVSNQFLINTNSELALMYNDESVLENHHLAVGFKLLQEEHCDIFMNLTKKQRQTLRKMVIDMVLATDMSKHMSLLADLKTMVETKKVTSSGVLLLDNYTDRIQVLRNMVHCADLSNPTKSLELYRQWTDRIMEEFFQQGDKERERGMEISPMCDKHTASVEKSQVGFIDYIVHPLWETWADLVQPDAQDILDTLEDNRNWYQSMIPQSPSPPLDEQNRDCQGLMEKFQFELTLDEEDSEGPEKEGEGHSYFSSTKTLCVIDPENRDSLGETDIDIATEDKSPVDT

| inhibition [1] [%] | SMILES | also measured |
| --- | --- | --- |
| 94 | O=C(NCc1ccc(F)cc1F)c1cccc2[nH]c(-c3ccc(OC(F)F)c(OCC4CC4)c3)nc12 | Activity (HEK-293T): > 70%; Activity (RAW264.7): Non-toxic |
| 91.1 | O=C(NCc1cccnc1)c1cccc2[nH]c(-c3ccc(OC(F)F)c(OCC4CC4)c3)nc12 | Activity (RAW264.7): Non-toxic |
| 93.3 | O=C(NCc1cnccn1)c1cccc2[nH]c(-c3ccc(OC(F)F)c(OCC4CC4)c3)nc12 | – |
| 24.8 | O=C(NCc1ccc(F)cc1F)c1ccc2[nH]c(-c3ccc(OC(F)F)c(OCC4CC4)c3)nc2c1 | – |
| 53.1 | O=C(Nc1nc2ccccc2s1)c1cccc2[nH]c(-c3ccc(OC(F)F)c(OCC4CC4)c3)nc12 | – |
| 83.8 | O=C(Nc1ccccc1)c1cccc2[nH]c(-c3ccc(OC(F)F)c(OCC4CC4)c3)nc12 | – |
| 42.5 | COc1ccc(-c2nc3cc(C(=O)NCc4ncccn4)ccc3[nH]2)cc1OCC1CC1 | – |
| 92.2 | O=C(NCc1ccccc1)c1cccc2[nH]c(-c3ccc(OC(F)F)c(OCC4CC4)c3)nc12 | Activity (HEK-293T): > 70%; Activity (RAW264.7): Non-toxic |
| 79.3 | O=C(Nc1ccc2ncsc2c1)c1cccc2[nH]c(-c3ccc(OC(F)F)c(OCC4CC4)c3)nc12 | – |
| 96.2 | O=C(O)c1ccc(NNC(=O)c2cccc3[nH]c(-c4ccc(OC(F)F)c(OCC5CC5)c4)nc23)cc1 | Activity (HepG2): Non-toxic; Activity (RAW264.7): Non-toxic |
| 90.1 | O=C(Nc1cccnc1)c1cccc2[nH]c(-c3ccc(OC(F)F)c(OCC4CC4)c3)nc12 | Activity (HepG2): Non-toxic; Activity (RAW264.7): Non-toxic |
| 80.9 | COc1ccc(-c2ccc3[nH]c(-c4ccc(OC(F)F)c(OCC5CC5)c4)nc3c2)cc1OC | – |
| 95.5 | O=C(NCc1ncccn1)c1cccc2[nH]c(-c3ccc(OC(F)F)c(OCC4CC4)c3)nc12 | – |
| 49.2 | COc1ccc(-c2nc3cc(C(=O)Nc4ccc5ncsc5c4)ccc3[nH]2)cc1OCC1CC1 | – |
| 68 | O=C(Nc1nccs1)c1cccc2[nH]c(-c3ccc(OC(F)F)c(OC(F)F)c3)nc12 | – |
| 91.9 | O=C(NCc1cccc(F)c1F)c1cccc2[nH]c(-c3ccc(OC(F)F)c(OCC4CC4)c3)nc12 | Activity (HEK-293T): > 70%; Activity (RAW264.7): Non-toxic |
| 81.6 | O=C(Nc1ccccn1)c1cccc2[nH]c(-c3ccc(OC(F)F)c(OCC4CC4)c3)nc12 | – |
| 85.2 | O=C(NCc1ccccc1F)c1cccc2[nH]c(-c3ccc(OC(F)F)c(OCC4CC4)c3)nc12 | – |
| 76.2 | N#Cc1ccc(NNC(=O)c2ccc3[nH]c(-c4ccc(OC(F)F)c(OCC5CC5)c4)nc3c2)cc1 | – |
| – | COc1cc2c(cc1OC)-c1c/c(=N\c3c(C)cc(C)cc3C)n(CCNC(N)=O)c(=O)n1CC2 [ENSIFENTRINE] | IC50 [2]: 0.4 nM; IC50 (Phosphodiesterase 4): 1479 nM |
| 82.4 | O=C(NCc1cc(F)cc(F)c1)c1cccc2[nH]c(-c3ccc(OC(F)F)c(OCC4CC4)c3)nc12 | – |
| 65.6 | O=C(Nc1ccncc1)c1cccc2[nH]c(-c3ccc(OC(F)F)c(OCC4CC4)c3)nc12 | – |

| inhibition [1] [%] | SMILES | also measured |
| --- | --- | --- |
| 94.4 | O=C(NCc1c(F)cccc1F)c1cccc2[nH]c(-c3ccc(OC(F)F)c(OCC4CC4)c3)nc12 | Activity (HEK-293T): > 70%; Activity (RAW264.7): Non-toxic |
| 70.2 | O=C(Nc1ccc2ncsc2c1)c1cccc2[nH]c(-c3ccc(OC(F)F)c(OC(F)F)c3)nc12 | – |
| 88.6 | O=C(NCc1c(F)cc(F)cc1F)c1cccc2[nH]c(-c3ccc(OC(F)F)c(OCC4CC4)c3)nc12 | – |
| 23.3 | COc1ccc(-c2nc3cc(C(=O)NCc4ccc(F)cc4F)ccc3[nH]2)cc1OCC1CC1 | – |
| 62.3 | O=C(Nc1ccncc1)c1ccc2[nH]c(-c3ccc(OC(F)F)c(OCC4CC4)c3)nc2c1 | – |
| 90.6 | O=C(NCc1ccc(F)c(F)c1)c1cccc2[nH]c(-c3ccc(OC(F)F)c(OCC4CC4)c3)nc12 | Activity (HEK-293T): > 70%; Activity (RAW264.7): Non-toxic |
| 93.5 | O=C(Nc1ccc2[nH]ccc2c1)c1cccc2[nH]c(-c3ccc(OC(F)F)c(OCC4CC4)c3)nc12 | Activity (HepG2): Non-toxic; Activity (RAW264.7): Non-toxic |
| 73.3 | O=C(NCc1c(F)cc(F)cc1F)c1cccc2[nH]c(-c3ccc(OC(F)F)c(OC(F)F)c3)nc12 | – |
| 93.4 | COc1ccc(CNC(=O)c2cccc3[nH]c(-c4ccc(OC(F)F)c(OCC5CC5)c4)nc23)cn1 | Activity (RAW264.7): Non-toxic |
| 91.5 | O=C(ON1C(=O)CCC1=O)c1cccc2[nH]c(-c3ccc(OC(F)F)c(OCC4CC4)c3)nc12 | – |
| 62.2 | O=C(ON1C(=O)CCC1=O)c1ccc2[nH]c(-c3ccc(OC(F)F)c(OCC4CC4)c3)nc2c1 | – |
| 94.6 | O=C(NCC1CCOCC1)c1cccc2[nH]c(-c3ccc(OC(F)F)c(OCC4CC4)c3)nc12 | – |
| – | O=C(Nc1c(Cl)cncc1Cl)c1ccc(OC(F)F)c(OCC2CC2)c1 | Activity (Mus musculus [3]): Active; Activity (Mus musculus [4]): Active; Activity (Mus musculus [5]): Active; Activity (Mus musculus [6]): Active; Activity (Mus musculus [7]): Active; Activity (Mus musculus [8]): Active; Activity (Mus musculus [9]): Active; Activity (Mus musculus [10]): Active; Activity (Mus musculus [11]): Active; Activity (Mus musculus [12]): Active |
| 25.8 | O=S(=O)(c1ccccc1)n1cc(-c2ccc3[nH]c(-c4ccc(OC(F)F)c(OCC5CC5)c4)nc3c2)c2ccccc21 | – |
| 90.1 | O=C(NCc1ccc2ccccc2c1)c1cccc2[nH]c(-c3ccc(OC(F)F)c(OCC4CC4)c3)nc12 | Activity (HepG2): Non-toxic; Activity (RAW264.7): Non-toxic |
| 94.1 | Cn1ccc(NC(=O)c2cccc3[nH]c(-c4ccc(OC(F)F)c(OCC5CC5)c4)nc23)n1 | – |
| 62.3 | O=C(NCc1ncccn1)c1ccc2[nH]c(-c3ccc(OC(F)F)c(OCC4CC4)c3)nc2c1 | – |
| 56.8 | Cc1nc2ccc(NC(=O)c3cccc4[nH]c(-c5ccc(OC(F)F)c(OCC6CC6)c5)nc34)cc2s1 | – |
| 93.9 | O=C(NCc1ccccn1)c1cccc2[nH]c(-c3ccc(OC(F)F)c(OCC4CC4)c3)nc12 | Activity (RAW264.7): Non-toxic |
| 88.8 | O=C(NCc1cc(F)ccc1F)c1cccc2[nH]c(-c3ccc(OC(F)F)c(OCC4CC4)c3)nc12 | – |
| 81.4 | FC(F)Oc1ccc(-c2nc3cc(-c4ccncc4)ccc3[nH]2)cc1OCC1CC1 | – |
| 93.6 | Cn1cc(NC(=O)c2cccc3[nH]c(-c4ccc(OC(F)F)c(OCC5CC5)c4)nc23)cn1 | Activity (HepG2): Non-toxic; Activity (RAW264.7): Non-toxic |
